Experimental findings from ChEMBL document CHEMBL1201862, “PubChem BioAssay data set” (2004) are described below.

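Test compounds were applied to cells in 96-well plates for 48 hours at 5 doses. The concentration for 50% growth inhibition is given as GI50.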 Calls of active or inactive are those of the source. No stated cut-off is given here; in the data, active = GI50 up to about 1.1 µM and inactive = higher.

Holding throughout (test): inhibition of tumour cell growth, NCI panel, 48 h
The subject of assay [1] is MDA-N.
Assay [2] deals with MDA-MB-231.
For assay [3], the system named is MCF7.
Assay [4] relates to DU-145.
For assay [5], the system named is MDA-MB-435.
Assay [6] relates to NCI/ADR-RES.
The test system of assay [7] is RXF 631.
The test system of assay [8] is LXFL 529.
Assay [9] concerns 786-0.

Take `CC(NC(=O)C(NC(=O)CNC(=O)OC(C)(C)C)C(C)C)C(=O)Oc1c(Cl)c(Cl)c(Cl)c(Cl)c1Cl` (stereo not given): the GI50 was 25.1 µM (inactive) in [1]; 22.6 µM (inactive) in assay [2]; 25.5 µM (inactive) in [3]; 20.5 µM (inactive) in [4]; 23.4 µM (inactive) in [5]; 17.5 µM (inactive) in [6].
With `CC1(CO)C(O)CCC2(C)C1C(O)CC1CC3CC12CCC3(O)CO` (stereo not given), the figures for the GI50 in [3] and in assay [6] were > 217 µM (inactive) and > 225 µM (inactive), respectively.
Taken in the same sequence, the figures for `CCOCC(=O)N(C)c1cccc2c3c(n(C)c12)CCCCC3` were > 100 µM (inactive) and > 100 µM (inactive).
Consider `Cc1cc(OCC(O)CO)ccc1Cl` (stereo not given), for which the GI50 in assay [7] and in assay [8] was > 100 µM (inactive) each time.
As for `CC1=CC2=C(C=O)C(=O)[C@](C)(O)[C@@H](O)C2=CO1`, the results for the GI50 in assay [3] and in [6] were 39.4 µM (inactive) and > 53.8 µM (inactive), respectively.
Regarding `C/C(=N\N)C(CN1CCCCC1)C(c1ccccc1)c1c(O)c2ccccc2oc1=O` (stereo not given), the GI50 in assay [7], in assay [2], in [8], in assay [9], in [3] and in assay [4] was > 100 µM (inactive) throughout. Further, the GI50 in [5] and in assay [6] was > 100 µM (inactive) in each case.
For `COC(=O)/C(=C\c1ccco1)P(=O)(OC)OC`, the GI50 in assay [1] is 56.1 µM (inactive); in assay [2] it was 38.8 µM (inactive); in [9], 47.4 µM (inactive); in assay [3], 17.4 µM (inactive); in [4], 80.9 µM (inactive); in assay [5], 34.8 µM (inactive). The GI50 in assay [6] is 24.5 µM (inactive).
As for `O=[N+]([O-])c1ccc(CNC2=NNS(=O)(=O)c3ccccc32)cc1`, the GI50 in assay [7] is > 100 µM (inactive); in [8], 36.1 µM (inactive); in assay [9], > 100 µM (inactive).
Consider `CC/C(CC(=O)CCC(=O)Nc1ccc(C)c(C)c1)=N\NC(=O)c1cc2ccccc2cc1O`, for which the GI50 is 69.5 µM (inactive) in assay [7] and 21.9 µM (inactive) in assay [8].
In the case of `COc1ccc(NC(=O)/C(=C/c2ccc(N(CCC#N)CCC#N)cc2)NC(=O)c2cc([N+](=O)[O-])ccc2Cl)cc1`, the results for the GI50 in [7] and in assay [8] were 99.5 µM (inactive) and 8.89 µM (inactive), respectively.
For the compound `Cc1nc(Nc2nnc(-c3cc([N+](=O)[O-])cc([N+](=O)[O-])c3C)o2)sc1C(=O)CC(=O)Cc1nc2ccc(Cl)cc2nc1O`, the GI50 in [8] was > 100 µM (inactive).
For the compound `CN(C)C(=S)/N=C1\SC(=N\c2ccccc2)/C(=N/c2ccccc2)N1c1ccc([N+](=O)[O-])cc1`, the GI50 in assay [1], in assay [2], in [3], in assay [4], in [5] and in [6] was > 100 µM (inactive) in each case.
Take `CN(C)C(=S)/N=c1\ss/c(=N\C(=S)N(C)C)n1C1CCCCC1`: in assay [9], the GI50 was > 100 µM (inactive).
For the compound `CC1(C)O[C@H](C(=O)O)[C@@H](C(=O)O)O1`, the GI50 in [1], in assay [2], in assay [9], in assay [3], in [4] and in assay [5] was > 100 µM (inactive) throughout. The GI50 in assay [6] was > 100 µM (inactive).
On to `Cn1c2c(c3ccccc31)CCN(CCCN1CCN(c3ccccc3)CC1)C2=O`, for which the GI50 in assay [8] is 17.9 µM (inactive); in [9] it was 19.5 µM (inactive).
Taken in the same sequence, the figures for `[N-]=[N+]=NC1(Cc2ccccc2)C(=O)Nc2ccccc2C1=O` (stereo not given) were > 100 µM (inactive) and > 100 µM (inactive).
As to `CC#CC#C/C=C1\C=CC2(OC=CC2OC(C)=O)O1` (stereo not given), the GI50 in [7] is 14.5 µM (inactive); in assay [1] it was 15.8 µM (inactive); in [2] it was 17.8 µM (inactive); in assay [8] it was 16.3 µM (inactive); in assay [3], 14.4 µM (inactive); in [4], 20.4 µM (inactive). For the same compound, the figures for the GI50 in [5] and in [6] were 29.4 µM (inactive) and 28.6 µM (inactive), respectively.
Turning to `O=C1C=C2SC3C[C@@]24CC1(O)[N+]1=c2c4c(c(O)c4c2=C(C=N4)CC1)N3`, the values for the GI50 in [3] and in assay [6] were 0.278 µM (active) and 0.887 µM (active), respectively.
For the compound `COc1ccc(-c2cc(O)c3cc(C)cnc3n2)cc1`, the GI50 in assay [2] is 16.2 µM (inactive); in assay [3], 2.72 µM (inactive); in [4], 19.2 µM (inactive); in assay [5] it was 1.85 µM (inactive); in assay [6], 3.73 µM (inactive).
